Experimental data taken from patent US8084502B2, “Use of agmatine for protection of retinal ganglion cells” (priority 2007, dated 2011).

Key:
Assay type in all cases: cell-based, rat
RGC-5 [1] = test: Hoechst 33342 and PI staining after hypoxia; conditions: hypoxia 48 hours; 100 μM of agmatine or 10 ng/mL of BDNF
Experimental: The RGC-5 cell line, which is a RGC line developed from post-natal Sprague-Dawley rats, was grown in modified Dulbecco's Modified Eagle's Medium (DMEM; Gibco) supplemented with 10% of heat inactivated fetal bovine serum (Gibco) and 100 U/mL of penicillin and 100 μg/mL of streptomycin (Gibco). The cells were passaged every 2 to 3 days, and the cultures incubated at 37° C. in 5% of CO2 and air. […] For all experiments, cells were used at an 80% confluence. Cultures were transferred into a closed hypoxic chamber (Form a Scientific Co.) in which oxygen level (5% of O2, 5% of CO2, 90% of N2) and temperature (37° C.) were controlled. After washing twice with deoxygenated serum-free DMEM, cells were maintained in the hypoxic chamber. Control cells were not exposed to hypoxia. Agmatine or BDNF were added to the culture medium at the start of injury as indicated. Apoptotic or necrotic cell death was characterized by the use of Hoechst 33342 and PI double staining. Cells were stained with 10 μg/mL of Hoechst 33342 and 10 μg/mL of PI at 37° C. for 30 minutes. After washing twice with phosphate buffered saline (PBS), cells were imaged with a digital camera attached to a fluorescence microscope.

RGC-5 [2] = test: Annexin-V assay (flow cytometry), hypoxia-induced apoptosis; conditions: agmatine 100 μM or BDNF 10 ng/ml
Experimental: The RGC-5 cell line, which is a RGC line developed from post-natal Sprague-Dawley rats, was grown in modified Dulbecco's Modified Eagle's Medium (DMEM; Gibco) supplemented with 10% of heat inactivated fetal bovine serum (Gibco) and 100 U/mL of penicillin and 100 μg/mL of streptomycin (Gibco). The cells were passaged every 2 to 3 days, and the cultures incubated at 37° C. in 5% of CO2 and air. […] For all experiments, cells were used at an 80% confluence. Cultures were transferred into a closed hypoxic chamber (Form a Scientific Co.) in which oxygen level (5% of O2, 5% of CO2, 90% of N2) and temperature (37° C.) were controlled. After washing twice with deoxygenated serum-free DMEM, cells were maintained in the hypoxic chamber. Control cells were not exposed to hypoxia. Agmatine or BDNF were added to the culture medium at the start of injury as indicated. The percentage of cells actively undergoing apoptosis was determined by flow cytometry using the Annexin V-FITC Apoptosis Detection Kit (BD Biosciences, Cat no. 556547) according to the manufacturer's instructions. Briefly, cells were harvested and resuspended in binding buffer (10^6 cells/mL). 10^5 cells were mixed with 5 μL of annexin V-FITC and 5 μL of PI. After incubating at room temperature for 15 minutes in the dark, analysis was performed by flow cytometry.

JNK = test: Western blot, phospho-JNK in hypoxic RGC-5; conditions: agmatine 100 μM, BDNF 10 ng/mL
Experimental: (§1) The RGC-5 cell line, which is a RGC line developed from post-natal Sprague-Dawley rats, was grown in modified Dulbecco's Modified Eagle's Medium (DMEM; Gibco) supplemented with 10% of heat inactivated fetal bovine serum (Gibco) and 100 U/mL of penicillin and 100 μg/mL of streptomycin (Gibco). The cells were passaged every 2 to 3 days, and the cultures incubated at 37° C. in 5% of CO2 and air. […] For all experiments, cells were used at an 80% confluence. Cultures were transferred into a closed hypoxic chamber (Form a Scientific Co.) in which oxygen level (5% of O2, 5% of CO2, 90% of N2) and temperature (37° C.) were controlled. […] The protein concentrations in the resultant supernatants were measured with the Bradford reagent, and equal amounts of protein (40 μg) were boiled in Laemmli sample buffer, followed by being resolved by 10 or 15% SDS-PAGE. The proteins were transferred to polyvinylidene fluoride membranes (Immobilon; Millipore, Billerica, Mass.) and then probed overnight with antibodies against JNK, ERK p44/42, p38, NF-κB p65, phospho-JNK, phospho-ERK p44/42, phospho-p38, phospho-NF-κB, (3-actin and histone 3 as indicated (diluted 1:1000). The immunoreactive bands were detected with horseradish peroxidase-conjugated secondary antibodies and visualized by enhanced chemiluminescence.

ERK = test: Western blot, phospho-ERK in hypoxic RGC-5; conditions: agmatine 100 μM, BDNF 10 ng/mL
Experimental: as §1

[3] = system: Total MAPKs (JNK, ERK, and p38); test: Western blot, total MAPKs in hypoxic RGC-5
Experimental: as §1

RGC-5 [4] = test: LDH assay, TNF-α-induced cell death; conditions: 100 μM of agmatine; for LDH release: 50 ng/mL of TNF-α
Experimental: The RGC-5 cell line, which is an RGC line developed from post-natal Sprague-Dawley rats, was grown in modified DMEM (Gibco) supplemented with 10% of heat inactivated fetal bovine serum (Gibco) and 100 U/mL of penicillin and 100 μg/mL of streptomycin (Gibco). The cells were passaged every 2 to 3 days and incubated at 37° C. in 5% of CO2 and air. At cultivation, the cells had the same morphology. For all experiments, cells were used at 80% of confluence.
After washing twice with PBS, cells were cultured in serum-free DMEM and treated with either 10 or 50 ng/mL of recombinant rat TNF-α (Chemicon) for up to 48 hours. The control cells were not exposed to TNF-α. 100 μM of agmatine was added to the culture medium at the start of injury as indicated.
Cell viability was quantified by measuring the amounts of LDH released from the injured cells after TNF-α administration. LDH release is expressed as a value relative to the value of 100, which is the maximum LDH release that occurs after freezing each culture at −70° C. overnight and then rapidly thawing, thus inducing nearly complete cell damage. All experiments were performed in at least quadruplicate, and repeated at least eight times using cell cultures derived from different platings.

N=C(N)NCCCCN [agmatine]
RGC loss (Hoechst-positive / PI-positive cells) (RGC-5 [1]): RGC loss was prevented | proportion of apoptotic cells (RGC-5 [2]; hypoxia 12 hours): no significant difference | proportion of apoptotic cells (RGC-5 [2]; hypoxia 24 hours): significant decrease in apoptotic cells | hypoxia-induced expression of phospho-JNKs (JNK): significantly suppressed | expression of phospho-ERKs (ERK): did not significantly affect | Total MAPKs (JNK, ERK, and p38) and β-actin [3]: no significant changes | LDH release (RGC-5 [4]; 24 hours): 5.91±0.86% | LDH release (RGC-5 [4]; 48 hours): 8.14±2.43% | TNF-α-induced LDH release (RGC-5 [4]; all P<0.001): significantly inhibited

BDNF: recombinant human BDNF (R&D System), well-known protective neurotrophin for RGCs, used as comparator
RGC loss (Hoechst-positive / PI-positive cells) (RGC-5 [1]): RGC loss was prevented | proportion of apoptotic cells (RGC-5 [2]; hypoxia 12 hours): no significant difference | proportion of apoptotic cells (RGC-5 [2]; hypoxia 24 hours): significant decrease in apoptotic cells | hypoxia-induced expression of phospho-JNKs (JNK): not | expression of phospho-ERKs (ERK): completely blocked the expression of phospho-ERKs after exposure to hypoxia for 3 and 6 hours, but had no effect thereafter | Total MAPKs (JNK, ERK, and p38) and β-actin [3]: no significant changes
